In the CheMixHub viscosity set:
± gives the uncertainty stated by the source.

Experiment: xn = mol fraction of the nth substance listed

CC(=O)OC(C)C + Cc1cccc(C)c1
viscosity [mPa·s], 101 kPa
Conditions | x1 = 0.0998 | x1 = 0.212 | x1 = 0.3176 | x1 = 0.4048 | x1 = 0.5079 | x1 = 0.6118 | x1 = 0.7201 | x1 = 0.8193 | x1 = 0.9305
303.15 K | 0.544 ± 0.011 | 0.53 ± 0.011 | 0.518 ± 0.011 | 0.509 ± 0.011 | 0.499 ± 0.011 | 0.489 ± 0.011 | 0.481 ± 0.011 | 0.474 ± 0.011 | 0.466 ± 0.011
313.15 K | 0.488 ± 0.011 | 0.475 ± 0.011 | 0.464 ± 0.011 | 0.456 ± 0.011 | 0.447 ± 0.011 | 0.438 ± 0.011 | 0.43 ± 0.011 | 0.423 ± 0.011 | 0.417 ± 0.01

CCCCNCCCC + C1CCCCC1
viscosity [mPa·s], 101 kPa
Conditions | 303.15 K | 313.15 K
x1 = 0.01094 | 0.8102 ± 0.0056 | 0.7072 ± 0.005
x1 = 0.02041 | 0.8023 ± 0.0055 | 0.6959 ± 0.005
x1 = 0.02983 | 0.7945 ± 0.0055 | 0.6867 ± 0.0049
x1 = 0.03917 | 0.7871 ± 0.0055 | 0.6761 ± 0.0049
x1 = 0.04929 | 0.7755 ± 0.0054 | 0.6665 ± 0.0048
x1 = 0.05831 | 0.7665 ± 0.0054 | 0.6583 ± 0.0048
x1 = 0.06895 | 0.7585 ± 0.0053 | 0.6494 ± 0.0048
x1 = 0.07966 | 0.7491 ± 0.0053 | 0.6406 ± 0.0047
x1 = 0.08806 | 0.742 ± 0.0053 | 0.6327 ± 0.0047
x2 = 0.1011 | 0.749 ± 0.015 | –
x2 = 0.2001 | 0.737 ± 0.015 | –
x2 = 0.3025 | 0.731 ± 0.015 | –
x2 = 0.4034 | 0.728 ± 0.015 | –
x2 = 0.4997 | 0.727 ± 0.015 | –
x2 = 0.605 | 0.729 ± 0.015 | –
x2 = 0.7025 | 0.727 ± 0.015 | –
x2 = 0.7989 | 0.743 ± 0.015 | –
x2 = 0.8971 | 0.759 ± 0.015 | –

CCCCBr + CCCCO
viscosity [mPa·s], 101.33 kPa
Conditions | x2 = 0.1114 | x2 = 0.2168 | x2 = 0.3241 | x2 = 0.4255 | x2 = 0.5172 | x2 = 0.6158 | x2 = 0.7127 | x2 = 0.7911 | x2 = 0.8968
298.15 K | 0.63 ± 0.009 | 0.685 ± 0.009 | 0.759 ± 0.01 | 0.86 ± 0.011 | 0.983 ± 0.013 | 1.158 ± 0.014 | 1.394 ± 0.017 | 1.636 ± 0.02 | 2.046 ± 0.024
308.15 K | 0.554 ± 0.008 | 0.588 ± 0.008 | 0.638 ± 0.009 | 0.706 ± 0.009 | 0.793 ± 0.01 | 0.918 ± 0.012 | 1.086 ± 0.013 | 1.261 ± 0.015 | 1.581 ± 0.019
318.15 K | 0.495 ± 0.007 | 0.522 ± 0.008 | 0.561 ± 0.008 | 0.613 ± 0.008 | 0.679 ± 0.009 | 0.771 ± 0.01 | 0.899 ± 0.011 | 1.029 ± 0.013 | 1.264 ± 0.015
